Laboratory results from US7371555B2, “Polypeptides having α-H-α-amino acid amide racemase activity and nucleic acids encoding the same” (DSM IP Assets B.V., priority 2002, dated 2008).
Residues, ends and D or L forms follow the SMILES beside them.

Key:
[1] = test system: partially purified α-H-α-amino acid amide racemase from O. anthropi IA; assay: Substrate specificity of the partially purified racemase (Example 8); format: biochemical, Ochrobactrum anthropi IA; design: tested at 75 mM; details: relative to the activity towards L-leucine amide; pH 8.0, 37° C.
Method: The substrate specificity of the O. anthropi IA α-H-α-amino acid amide racemase was determined using the partially purified enzyme preparation obtained by the protocol described above. Reaction mixtures of 1 ml total volume were prepared by mixing 772 μl of 66.6 mM HEPES-NaOH, pH 8.0, 10 μl of 0.1 M dithiothreitol, 18 μl of a solution containing 20 mg/ml BSA and 1 mM pyridoxal-5-phosphate, and 100 μl of a 0.75 M substrate solution, pH 8.0. After equilibration for 5 minutes at 37° C., the reactions were started by the addition of 100 μl of the enzyme solution. Reaction mixtures were incubated at 37° C. without shaking. After regular time intervals, samples of 50 μl were taken and transferred into vials containing 950 μl of 1 M H3PO4 to stop the reaction. After sufficient dilution of the samples in 0.4 M borate buffer pH 9.4, the mixtures obtained were analyzed using HPLC to determine the exact concentrations of two amino acid amide enantiomers according to the method of Example 7.
Initial activity for the different substrates tested was calculated from the linear parts of the progress curves, in which the amount of the amino acid amide enantiomer formed (so with a stereochemistry opposite to the substrate molecule) was plotted against the reaction time.

[2] = test system: α-H-α-amino acid amide racemase from Ochrobactrum anthropi IA; assay: Substrate specificity, CFE from E. coli TOP10/pKEC_AZAR_3 (Example 7); format: biochemical; details: relative to the activity towards D-leucine amide; 75 mM substrate, 20 mM EDTA, pH 8.0, 37° C.
Method: Two pre-cultures of E. coli TOP10/pKEC_AZAR—3 (see Example 4) were prepared by inoculation of 2 erlenmeyer flasks with 100 ml of 2*TY medium (10 g/l Yeast extract, 16 g/l Tryptone, 5 g/l NaCl) containing 50 mg/l of kanamycin with 10 μl of a glycerol stock per flask. After overnight cultivation at 28° C. and 200 rpm, the pre-cultures were pooled, and subsequently used to inoculate 2 erlenmeyer flasks each containing 1 l of the same medium. Also these flasks were cultivated at 28° C. and 200 rpm for 16-18 h. Cells were harvested by centrifugation (15 min. at 6,200×g, 4° C.), washed with 20 mM HEPES-NaOH, pH 7.5, pooled, weighed, and resuspended in a solution containing 20 mM HEPES-NaOH, pH 7.5, 20 μM pyridoxal-5-phosphate, and 1.3 mM of dithiothreitol in a 1:3 ratio of wet weight cells to solution. Then, cells were disintegrated by 10 min. sonification with a Soniprep 150 of MSE operated at maximum amplitude using time intervals of 10 sec. (i.e., 10 sec. sonification, 10 sec. cooling) and cooling in ice/acetone. Particles were removed by centrifugation, after which sucrose was added to the cell free extract to a final concentration of 0.25 M. The resulting cell free extract (CFE) was stored in aliquots at −20° C. E. coli TOP10/pBAD/Myc-HisC (Invitrogen) cells were treated in exactly the same way and served as negative control.
The substrate specificity of the α-H-α-amino acid racemase from O. anthropi IA was determined by measuring the racemase activity of the above-mentioned CFE towards a number of enantiomerically pure amino acid amides. Each reaction mixture of 10 ml (including the CFE) contained 50 mM HEPES-NaOH, pH 8.0, 20 μM pyridoxal-5-phosphate, 0.4 mg/ml BSA, 1 mM dithiothreitol, 20 mM EDTA and 75 mM of one of the amino acid amides tested. Reactions were started by the addition of 1 ml of the thawed CFE of E. coli TOP10/pKEC_AZAR—3 or E. coli TOP10/pBAD/Myc-HisC (blank) and were incubated at 37° C. At regular time intervals samples of 1 ml were taken and transferred to vials containing 1 ml of 1M H3PO4 to stop the reaction. After sufficient dilution of the samples in 0.4 M borate buffer pH 9.4, the mixtures obtained were analyzed using HPLC to determine the exact concentrations of the two amino acid and two amino acid amide enantiomers according to the following method.
The initial activity for the different substrates tested was calculated from the linear parts of the progress curves, in which the conversion was plotted against the reaction time. Use of the linear part of the progress curves secured that only samples taken at time points at which the substrate concentration was still sufficiently high, were used for the calculations. The conversion was calculated by dividing the amount of amino acid and amino acid amide formed via the racemase reaction (so with the opposite stereochemistry compared to the substrate molecule) by the total amount of two amino acid enantiomers and the two amino acid amide enantiomers.

[3] = test system: α-H-α-amino acid amide racemase from Arthrobacter nicotianae NCIMB 41126; assay: Substrate specificity, CFE from E. coli DH10B/pAn(1)PLV36D06 (Example 9); format: biochemical; details: relative to the activity towards D-leucine amide; 75 mM substrate, pH 8.0, 37° C.
Method: Preparation of the CFE of E. coli DH10B/pAn(1)PLV36D06 was performed as described in Example 7 for E. coli TOP10/pKEC_AZAR—3
Before applying the CFE from E. coli DH10B/pAn(1)PLV36D06 in the reactions with different enantiomerically pure α-H-α-amino acid amides to determine the substrate specificity of the A. nicotianae α-H-α-amino acid amide racemase, the E. coli amidases/aminopeptidases in this CFE were inhibited by a pre-treatment with an inhibitor cocktail. One tablet of Complete Mini Protease Inhibitor Cocktail (Roche Applied Science, Mannheim, Germany) was dissolved in 9 ml of the CFE followed by an incubation of 1 hour at room temperature. Next, reaction mixtures of 10 ml each (including the CFE) were prepared containing 50 mM HEPES-NaOH, pH 8.0, 20 μM pyridoxal-5-phosphate, 0.4 mg/ml BSA, 1 mM dithiothreitol and 75 mM of one of the amino acid amides tested. Reactions were started by the addition of 1 ml of the pre-treated CFE of E. coli DH10B/pAn(1)PLV36D06 or E. coli TOP10/pBAD/Myc-HisC (blank) and were incubated at 37° C. At regular time intervals samples of 1 ml were taken and transferred to vials containing 1 ml of 1M H3PO4 to stop the reaction. After sufficient dilution of the samples in 0.4 M borate buffer pH 9.4, the mixtures obtained were analyzed using HPLC to determine the exact concentrations of the two amino acid and two amino acid amide enantiomers according to the method of Example 7.

[4] = test system: E. coli clones with plasmid encoded A. nicotianae NCIMB 41126 α-H-α-amino acid amide racemase activity; assay: Confirmation of potential positive clones of the A. nicotianae NCIMB 41126 gene library; format: cell-based, Arthrobacter nicotianae NCIMB 41126; details: 70 mM substrate, 10 μM pyridoxal-5-phosphate, 20 h at 30° C.
Method: Of all 32 potential positive clones identified in the screening, material from the masterplates was used to inoculate 3 ml of liquid screening medium containing 50 mg/l kanamycin. After growth for 2 days at 30° C., cells were collected by centrifuging 2 ml of these cell cultures. Then the cell pellets were washed four times in 25 mM Tris-HCl buffer, pH 7.5. Subsequently, the cell pellets were resuspended in 100 μl substrate solution containing 70 mM of D-phenylalanine amide, or D-leucine amide, or D-valine amide in 50 mM Tris-HCl, pH 7.5 and 1 mM MnCl2. After incubation for 20 h at 30° C., the reactions were stopped by the addition of 100 μl of 0.15 M HCl, after which the reaction mixtures were analyzed by the HPLC method described in Example 1.
Confirmation of both potential positive clones was done according to the protocol given in Example 3, with the exception that all 3 substrate solutions used contained 10 μM of pyridoxal-5-phosphate.

[5] = test system: lyophilized O. anthropi IA cells; assay: α-H-α-amino acid amide racemase activity of lyophilized O. anthropi IA cells; format: biochemical, Ochrobactrum anthropi IA; details: approximately 72 hours at 40° C., 10 times diluted reaction mixture
Method: O. anthropi IA cells were cultivated in Medium A containing DL-α-amino-ε-caprolactam (2 g/l) as sole nitrogen source. After incubation at 28° C. and 200 rpm for three days (OD620 nm=4.7), cells were harvested by centrifugation, washed in 20 mM HEPES-NaOH buffer of pH 7.7 and lyophilized.
The assay mixture consisted of 10 mM HEPES-NaOH buffer (pH 7.7) containing toluene (2,5 v/v %), pyridoxal-5-phosphate (20 μM), D- or L-leucine amide (2.5 m %) and in some cases EDTA (20 mM). Per assay 150 mg of lyophilized cells were used. Chemical blanks (with the assay mixture without the O. anthropi IA cells) were used as a negative control. All reaction mixtures (including the blanks) were incubated for approximately 72 hours at 40° C. before the reaction was stopped by the addition of 9 volumes of 1 M H3PO4. Finally, the reaction mixtures were analyzed by HPLC to determine the concentrations of D- and L-leucine amide and of D- and L-leucine. o-Phthaldehyde in combination with D-3-mercapto-2-methylpropionic acid was used in this HPLC method as a chiral reagent for the enantioseparation of these amino compounds (Duchateau, et al., J. Chromatogr. (1992) 623:237-245).
In a number of reactions EDTA was added to inhibit L- and/or D-specific amidase(s) present in the O. anthropi IA cells.
Without EDTA, amidases convert the substrate and/or product α-H-α-amino acid amides into α-H-α-amino acids thereby preventing direct detection of the other α-H-α-amino acid amide enantiomer as racemization product. […] Formation of L-leucine from D-leucine amide could not be detected in the chemical blank.

[6] = target: T1, α-amino-ε-caprolactam racemase from Achromobacter obae (Achromobacter obae, UniProt Q7M181); details: even when an excess amount of enzyme was used; cited from earlier work
T1 sequence (Q7M181 1-436): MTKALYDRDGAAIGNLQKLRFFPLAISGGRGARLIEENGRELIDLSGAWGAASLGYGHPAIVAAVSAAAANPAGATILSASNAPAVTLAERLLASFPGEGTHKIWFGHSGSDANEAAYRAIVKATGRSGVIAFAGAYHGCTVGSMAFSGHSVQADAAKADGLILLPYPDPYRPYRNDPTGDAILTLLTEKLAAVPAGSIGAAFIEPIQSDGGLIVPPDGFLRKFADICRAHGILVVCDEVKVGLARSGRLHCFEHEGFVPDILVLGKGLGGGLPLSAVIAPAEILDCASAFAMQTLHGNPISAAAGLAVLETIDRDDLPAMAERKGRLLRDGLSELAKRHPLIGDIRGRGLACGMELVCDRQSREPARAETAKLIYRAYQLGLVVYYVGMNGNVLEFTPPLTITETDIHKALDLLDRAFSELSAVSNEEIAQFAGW

Row | Structure (SMILES) | Rel. initial activity [1] [%] | α-H-α-amino acid amide racemase activity [6] | other results
1 | NC(=O)[C@H](N)CCCC1OCCO1 [D-2-amino-5-[1,3]dioxolan-2-yl-pentanoicacid amide] | 9.1 |  | 
2 | C[C@@H](N)C(N)=O [D-alanine amide] |  |  | Rel. initial activity [2]: 85%
3 | CCC[C@@H](N)C(N)=O [D-norvaline amide] | 341 |  | Rel. initial activity [2]: 94%; Rel. initial activity [3]: 107%
4 | NC(=O)[C@H](N)c1ccccc1 [D-phenylglycineamide] | 9.1 |  | 
5 | CC(C)[C@@H](N)C(N)=O [D-valine amide] |  |  | Rel. initial activity [3]: 45%; conversion of D-amide into L-acid [4]: significantly converted
6 | CC[C@H](N)C(N)=O [L-2-aminobutyric acid amide] | 641 |  | Rel. initial activity [2]: 203%; Rel. initial activity [3]: 76%
7 | C[C@H](N)C(N)=O [L-alanine amide] | 350 |  | 
8 | CC(C)C[C@H](N)C(N)=O [L-leucine amide] | 100 | no α-H-α-amino acid amide racemase activity was found | D-leucine ([5]; with EDTA (20 mM)): 0.003 m %; D-leucine amide ([5]; with EDTA (20 mM)): 0.021 m %; L-leucine ([5]; with EDTA (20 mM)): 0.058 m %; L-leucine amide ([5]; with EDTA (20 mM)): 0.15 m %; D-leucine ([5]; without EDTA): 0.001 m %; D-leucine amide ([5]; without EDTA): <0.001 m %; L-leucine ([5]; without EDTA): 0.21 m %; L-leucine amide ([5]; without EDTA): <0.001 m %
9 | CC(C)C[C@H](N)C(=O)N[C@@H](C)C(=O)O [L-leucyl-L-alanine] (H-Leu-Ala-OH) |  | no α-H-α-amino acid amide racemase activity was found | 
10 | CC(C)C[C@H](N)C(=O)NCC(=O)O [L-leucyl-glycine] (H-Leu-Gly-OH) |  | no α-H-α-amino acid amide racemase activity was found | 
11 | NC(=O)[C@@H](N)Cc1ccccc1 [L-phenylalanineamide] | 4.5 |  | 
12 | NC(=O)[C@@H](N)CO [L-serine amide] |  |  | Rel. initial activity [2]: 83%
13 | NC(=O)[C@@H](N)Cc1c[nH]c2ccccc12 [L-tryptophan amide] |  | no α-H-α-amino acid amide racemase activity was found | 
14 | CC(C)[C@H](N)C(N)=O [L-valine amide] | 4.5 |  | 
15 | CC(C)[C@H](N)C(=O)N[C@@H](C)C(=O)O [L-valyl-L-alanine] (H-Val-Ala-OH) |  | no α-H-α-amino acid amide racemase activity was found | 
16 | CC(C)[C@H](N)C(=O)NCC(=O)O [L-valyl-glycine] (H-Val-Gly-OH) |  | no α-H-α-amino acid amide racemase activity was found | 
17 | CC[C@H](C)[C@H](N)C(N)=O [LL-isoleucine amide] | 4.5 |  | 
18 | C[C@H](O)[C@H](N)C(N)=O [LL-threonine amide] | 100 |  | 
